The source made the active and inactive calls. The calls are words filed in the database; no cut-off is given here.

Results on 6 compounds are retold here after ChEMBL document CHEMBL2203089, “Synthesis of enantiomerically pure perhydro-1,4-diazepine-2,5-dione and 1,4-piperazine-2,5-dione derivatives exhibiting potent activity as apoptosis inhibitors” (Bioorg Med Chem Lett, 2012).

The target in experiment [1] is Apoptotic protease-activating factor 1/Caspase-3/Caspase-9/Cytochrome c (Homo sapiens, UniProt O14727+P42574+P55211+P99999). Description: Inhibition of Apaf-1-caspase 9-cytochrome c-caspase 3 complex in human HEK293 cytosolic extract using afc-DEVD as substrate preincubated for 30 mins before substrate addition measured after 30 mins by fluorescence assay.
Apoptotic protease-activating factor 1/Caspase-3/Caspase-9/Cytochrome c, sequence (O14727 whole entry): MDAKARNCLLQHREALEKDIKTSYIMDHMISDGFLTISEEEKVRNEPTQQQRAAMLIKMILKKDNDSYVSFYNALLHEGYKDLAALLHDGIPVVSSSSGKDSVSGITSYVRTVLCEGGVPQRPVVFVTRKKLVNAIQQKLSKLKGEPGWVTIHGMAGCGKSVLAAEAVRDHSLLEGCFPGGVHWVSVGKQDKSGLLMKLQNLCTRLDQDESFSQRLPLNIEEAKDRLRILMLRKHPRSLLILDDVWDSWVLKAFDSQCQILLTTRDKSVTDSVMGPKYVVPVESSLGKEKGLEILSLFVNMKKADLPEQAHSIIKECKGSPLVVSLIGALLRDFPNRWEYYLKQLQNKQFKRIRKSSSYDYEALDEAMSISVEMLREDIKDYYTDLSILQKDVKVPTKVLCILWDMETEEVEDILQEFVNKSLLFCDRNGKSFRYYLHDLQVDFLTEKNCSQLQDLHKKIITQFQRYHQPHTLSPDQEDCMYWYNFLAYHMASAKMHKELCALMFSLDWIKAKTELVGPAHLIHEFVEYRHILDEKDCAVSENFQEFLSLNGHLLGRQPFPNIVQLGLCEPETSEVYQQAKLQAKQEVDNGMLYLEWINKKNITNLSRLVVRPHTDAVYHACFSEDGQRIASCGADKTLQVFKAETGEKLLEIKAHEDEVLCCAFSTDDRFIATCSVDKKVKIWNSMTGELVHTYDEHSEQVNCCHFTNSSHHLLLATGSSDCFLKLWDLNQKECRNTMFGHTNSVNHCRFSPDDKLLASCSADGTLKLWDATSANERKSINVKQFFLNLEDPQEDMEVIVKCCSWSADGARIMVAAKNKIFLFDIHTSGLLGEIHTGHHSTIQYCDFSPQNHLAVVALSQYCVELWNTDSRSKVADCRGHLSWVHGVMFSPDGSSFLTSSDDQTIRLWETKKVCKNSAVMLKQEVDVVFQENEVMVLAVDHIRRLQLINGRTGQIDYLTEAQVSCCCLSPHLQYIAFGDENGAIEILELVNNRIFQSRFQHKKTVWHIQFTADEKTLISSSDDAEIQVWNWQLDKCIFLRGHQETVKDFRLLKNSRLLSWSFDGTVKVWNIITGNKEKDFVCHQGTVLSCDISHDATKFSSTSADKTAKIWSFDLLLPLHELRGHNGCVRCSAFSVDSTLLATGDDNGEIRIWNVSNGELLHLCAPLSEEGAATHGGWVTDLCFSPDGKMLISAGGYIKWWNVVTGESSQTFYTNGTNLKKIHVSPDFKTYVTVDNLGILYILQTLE
Apoptotic protease-activating factor 1/Caspase-3/Caspase-9/Cytochrome c, sequence (P42574 29-175 limits assumed): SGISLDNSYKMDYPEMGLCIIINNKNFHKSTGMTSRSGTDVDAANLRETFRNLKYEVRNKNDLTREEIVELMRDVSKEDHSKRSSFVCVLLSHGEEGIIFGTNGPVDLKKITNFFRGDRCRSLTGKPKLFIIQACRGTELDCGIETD
Apoptotic protease-activating factor 1/Caspase-3/Caspase-9/Cytochrome c, sequence (P42574 176-277 limits assumed): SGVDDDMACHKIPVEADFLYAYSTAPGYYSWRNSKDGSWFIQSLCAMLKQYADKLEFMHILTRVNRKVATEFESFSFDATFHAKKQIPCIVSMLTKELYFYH
Apoptotic protease-activating factor 1/Caspase-3/Caspase-9/Cytochrome c, sequence (P55211 1-315 limits assumed): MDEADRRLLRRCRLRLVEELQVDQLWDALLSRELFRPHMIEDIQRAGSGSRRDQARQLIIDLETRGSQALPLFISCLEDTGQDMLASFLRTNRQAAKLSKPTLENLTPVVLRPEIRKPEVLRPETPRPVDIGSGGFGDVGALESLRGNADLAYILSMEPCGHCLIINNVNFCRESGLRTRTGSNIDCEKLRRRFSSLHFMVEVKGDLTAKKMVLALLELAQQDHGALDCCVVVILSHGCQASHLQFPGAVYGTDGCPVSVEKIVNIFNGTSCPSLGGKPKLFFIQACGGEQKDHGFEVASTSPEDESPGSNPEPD
Apoptotic protease-activating factor 1/Caspase-3/Caspase-9/Cytochrome c, sequence (P55211 331-416 limits assumed): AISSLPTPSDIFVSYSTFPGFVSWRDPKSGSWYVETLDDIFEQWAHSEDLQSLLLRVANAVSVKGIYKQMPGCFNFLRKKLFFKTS
Apoptotic protease-activating factor 1/Caspase-3/Caspase-9/Cytochrome c, sequence (P99999 2-105 limits assumed): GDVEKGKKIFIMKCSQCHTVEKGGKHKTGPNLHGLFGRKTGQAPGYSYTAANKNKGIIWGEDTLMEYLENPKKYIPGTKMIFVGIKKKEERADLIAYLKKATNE
Experiment [2] can be described thus: Inhibition of Apaf-1-caspase 9-cytochrome c (horse) complex assessed as inhibition of release of afc from […] preincubated for 60 mins before substrate addition by fluorescence assay.
Experiment [3] is described as follows: Inhibition of beta-lactamase.

Broadly, the EC50 is the concentration that produces a half-maximal response. On to `NC(=O)CN(CCc1ccc(Cl)cc1Cl)C(=O)C1CC(=O)N(CCc2ccc(Cl)cc2Cl)CC(=O)N1CCC(c1ccccc1)c1ccccc1` (racemic), for which the 50% effective concentration (EC50) in experiment [1] amounted to 16.8 µM; in experiment [2], 7.9 µM.
With `NC(=O)CN(CCc1ccc(Cl)cc1Cl)C(=O)CC1C(=O)N(CCc2ccc(Cl)cc2Cl)CC(=O)N1CCC(c1ccccc1)c1ccccc1` (racemic), the EC50 in experiment [1] was found to be 17 µM; in experiment [2], 6.2 µM.
`NC(=O)CN(CCc1ccc(Cl)cc1Cl)C(=O)[C@H]1CC(=O)N(CCc2ccc(Cl)cc2Cl)CC(=O)N1CCC(c1ccccc1)c1ccccc1`: the inhibition result in experiment [3] was “inactive”. In addition, the EC50 was 14.4 µM in experiment [1] and 5 µM in experiment [2].
Consider `NC(=O)CN(CCc1ccc(Cl)cc1Cl)C(=O)[C@@H]1CC(=O)N(CCc2ccc(Cl)cc2Cl)CC(=O)N1CCC(c1ccccc1)c1ccccc1`, for which, in experiment [3], the inhibition entry was “inactive”. Also, the EC50 was 14 µM in experiment [1] and 3.2 µM in experiment [2].
For `NC(=O)CN(CCc1ccc(Cl)cc1Cl)C(=O)C[C@H]1C(=O)N(CCc2ccc(Cl)cc2Cl)CC(=O)N1CCC(c1ccccc1)c1ccccc1`, the inhibition entry in experiment [3] was “inactive”. In addition, the EC50 worked out at 23.9 µM in experiment [1] and 9.6 µM in experiment [2].
The matching figures for `NC(=O)CN(CCc1ccc(Cl)cc1Cl)C(=O)C[C@@H]1C(=O)N(CCc2ccc(Cl)cc2Cl)CC(=O)N1CCC(c1ccccc1)c1ccccc1`: “inactive”, 29.9 µM and 10.6 µM.
